Data from patent US20220390432A1, “METHODS OF CHARACTERIZING AND UTILIZING AGENT-CONDENSATE INTERACTIONS” (Whitehead Institute for Biomedical Research, priority 2019, published 2022).
“Also recorded” adds a separate entry of the source.

Columns and labels:
MED1 = target: T1, MED1 (Homo sapiens, UniProt Q15648); assay: In vitro droplet assay, small molecule partitioning into MED1 condensates; format: binding; settings: confocal fluorescence; Example 2: 125 mM NaCl, 10% PEG, 10 μM protein; fluorescent or fluorescently labeled drug
T1 construct: MED1—amino acids 600-1581; 6xHis (N); made in house; host or cells: LOBSTR cells (E. coli)
T1 sequence (Q15648 600-1581): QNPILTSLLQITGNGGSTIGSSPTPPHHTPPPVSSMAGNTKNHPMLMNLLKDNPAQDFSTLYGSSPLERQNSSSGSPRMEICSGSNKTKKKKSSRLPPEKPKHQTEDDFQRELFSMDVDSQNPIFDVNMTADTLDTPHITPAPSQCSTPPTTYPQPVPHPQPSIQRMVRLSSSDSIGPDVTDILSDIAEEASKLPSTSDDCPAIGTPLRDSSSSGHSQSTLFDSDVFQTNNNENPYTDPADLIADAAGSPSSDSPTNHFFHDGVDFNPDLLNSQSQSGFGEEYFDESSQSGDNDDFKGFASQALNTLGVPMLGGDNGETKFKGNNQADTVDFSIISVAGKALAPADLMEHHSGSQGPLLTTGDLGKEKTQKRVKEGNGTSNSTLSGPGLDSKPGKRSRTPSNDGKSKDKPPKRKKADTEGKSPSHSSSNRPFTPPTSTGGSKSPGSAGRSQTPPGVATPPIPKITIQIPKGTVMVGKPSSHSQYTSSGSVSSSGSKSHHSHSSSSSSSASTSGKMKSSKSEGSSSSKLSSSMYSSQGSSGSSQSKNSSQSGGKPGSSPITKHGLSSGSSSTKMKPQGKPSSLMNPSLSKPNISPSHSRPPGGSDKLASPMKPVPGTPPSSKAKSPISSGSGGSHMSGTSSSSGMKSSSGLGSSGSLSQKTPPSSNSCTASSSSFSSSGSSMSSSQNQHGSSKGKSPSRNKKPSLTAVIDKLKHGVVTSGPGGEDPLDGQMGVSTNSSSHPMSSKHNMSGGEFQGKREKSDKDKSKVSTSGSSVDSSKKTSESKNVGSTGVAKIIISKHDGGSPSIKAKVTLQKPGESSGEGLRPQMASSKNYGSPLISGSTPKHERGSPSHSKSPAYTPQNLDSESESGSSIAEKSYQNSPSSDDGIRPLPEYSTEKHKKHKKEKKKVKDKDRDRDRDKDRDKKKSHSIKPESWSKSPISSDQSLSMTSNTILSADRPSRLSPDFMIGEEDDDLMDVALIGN
Protocol: (§1) Recombinant BFP, GFP, or mCherry fusion proteins were concentrated and desalted to an appropriate protein concentration and 125 mM NaCl using Amicon Ultra centrifugal filters (30K MWCO, Millipore). Recombinant protein was added too. […] The protein solution was immediately loaded onto glass bottom 384 well plate (Cellvis P384-1.5H-N) and imaged with an Andor confocal microscope with a 150× objective. Unless indicated, images presented are of droplets settled on the glass coverslip.
(§2) Drug and small molecule concentrations used in the droplet experiments are as follows:
To analyze in vitro droplet experiments, custom Python scripts using the scikit-image package were written to identify droplets and characterize their size, shape and intensity. Droplets were segmented from average images of captured channels on various criteria: (1) an intensity threshold that was three s.d. above the mean of the image; (2) size thresholds (20 pixel minimum droplet size); and (3) a minimum circularity (circularity=4π·areaperimeter2) (circularity=4π·areaperimeter2) of 0.8 (1 being a perfect circle). After segmentation, mean intensity for each droplet was calculated while excluding pixels near the phase interface, and background-corrected by subtracting intensity of dark images of droplet formation buffer only. Droplets identified in the channel of the fluorescent protein from ten independent fields of view were quantified for each experiment. The maximum intensity of signal within the droplets was calculated for each channel, the maximum intensity in the drug channel was termed “maximum drug intensity”. To obtain the intensity of drug or dye alone in the diffuse state (termed “diffuse drug intensity”), the compound was added to droplet formation buffer at same concentration used in the droplet assay. This was then imaged on a confocal fluorescent microscope. The resulting image was processed in FIJI to obtain the fluorescent intensity of the field. To obtain the fluorescent intensity of protein droplets that bleed through in the drug channel (termed “background intensity”) protein droplets were imaged in the fluorescent channel in which the drug fluoresces and processed as above to obtain the average maximum intensity within the droplet across 10 images. The enrichment ratio was obtained by the following formula [(maximum drug intensity)−(background intensity)]/(diffuse drug intensity). The box plots show the distributions of all droplets. Each dot represents an individual droplet.

HP1α = target: T2, HP1α (Homo sapiens, UniProt P45973); assay: In vitro droplet assay, small molecule partitioning into HP1α condensates; format: binding
T2 construct: HP1α—full length, amino acids 1-191; 6xHis (N); made in house; host or cells: LOBSTR cells (E. coli)
T2 sequence (P45973 whole entry, the tested form may be a part): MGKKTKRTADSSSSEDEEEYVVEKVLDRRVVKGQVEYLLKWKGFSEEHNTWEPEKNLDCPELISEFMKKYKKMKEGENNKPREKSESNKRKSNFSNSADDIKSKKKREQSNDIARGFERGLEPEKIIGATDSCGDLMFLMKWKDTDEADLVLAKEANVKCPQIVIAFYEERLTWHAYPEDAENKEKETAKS
Protocol: as §1, §2
(§3) To analyze in vitro droplet experiments, custom Python scripts using the scikit-image package were written to identify droplets and characterize their size, shape and intensity. […] After segmentation, mean intensity for each droplet was calculated while excluding pixels near the phase interface, and background-corrected by subtracting intensity of dark images of droplet formation buffer only. Droplets identified in the channel of the fluorescent protein from ten independent fields of view were quantified for each experiment. The maximum intensity of signal within the droplets was calculated for each channel, the maximum intensity in the drug channel was termed “maximum drug intensity”. […]

MED1 aromatic mutant = target: T3, MED1 aromatic mutant (Homo sapiens, UniProt Q15648, F1031A/F1273A/F1351A/F1564A/F657A/F708A/F713A/F724A/F821A/F826A/F858A/F859A/F865A/F878A/F883A/F895A/F898A/F920A/F931A/W1533A/Y1083A/Y1132A/Y1431A/Y1456A/Y1476A/Y1492A/Y661A/Y752A/Y835A/Y882A); assay: In vitro droplet assay with MED1 aromatic mutant; format: binding; settings: 10% PEG, 125 mM NaCl, 10 μM protein, 5 μM small molecule
T3 construct: MED1—aromatic mutant amino acids 600-1581, all aromatic residues changed to alanine; 6xHis (N); made in house; host or cells: LOBSTR cells (E. coli)
Protocol: MED1—aromatic mutant amino acids 600-1581, all aromatic residues changed to alanine.
as §1, §3

MED1 condensates = target: T4, MED1 condensates (Homo sapiens, UniProt Q15648); assay: FRAP of in vitro droplets with drug; format: binding; settings: 5 μM TR-cisplatin, 10 μM protein, 125 mM NaCl, 10% PEG
T4 construct: MED1—amino acids 600-1581; 6xHis (N); made in house; host or cells: LOBSTR cells (E. coli)
T4 sequence (Q15648 600-1581): as the sequence (Q15648 600-1581) above
Protocol: For FRAP of in vitro droplets, 5 pulses of laser at a 50 us dwell time was applied to the MED1 channel and 20 pulses of laser at a 100 μs dwell time was applied to the Cisplatin channel. Recovery was imaged on an Andor microscope every 1 s for the indicated time periods. Fluorescence intensity was measured using FIJI. Post bleach FRAP recovery data was averaged over 6 replicates for each channel.

[1] = system: DNA in MED1 or HP1α droplets; assay: Cisplatin-DNA engagement assay; format: biochemical; settings: size-shift on a bioanalyzer; cisplatin 0-2 mM
Protocol: MED1-IDR-BFP and HP1a-BFP droplets were formed by mixing 10 μM protein with the droplet formation buffer containing 50 mM Tris-HCl pH 7.5, 100 mM NaCl, 10% PEG 8000, 10% glycerol, 1 mM DTT and 5 ng/ul DNA in a 10 μl reaction volume. The droplet reactions were incubated for 30 min at RT. Next, increasing concentrations of activated Cisplatin (0, 0.5, 0.75, 1, 1.5, and 2 mM) were added to the droplet reactions and incubated for another 30 min at RT. The reactions are then treated with 1 μl of Proteinase K (Invitrogen, 20 mg/ml) for 4 hr at 55° C. Platination of DNA was visualized by size-shift on a bioanalyzer.

[2] = system: nuclear condensates in HCT116 cells; assay: Cisplatin treatment followed by live cell imaging, condensate score; format: cell-based, human; settings: HCT116, 50 μM cisplatin, up to 12 hours
Protocol: HCT116 cells with the indicated GFP knock-in were plated at 35 k per well of a glass bottom 8-well chamber slide. Following incubation at 37° C. overnight, cells were treated with 50 uM cisplatin in DMEM or a 1:1000 dilution of DMSO for 12 hours. […] For representative images of each of the six tagged lines treated with vehicle or 50 μM cisplatin, cells were imaged on the Zeiss LSM 880 confocal microscope with Airyscan detector with 63× objective at 37° C. Nuclei were segmented from images of treated cells by custom Python scripts using the scikit-image, open-cv, and […] Python packages. Nuclei were segmented by median filter, thresholding, separated by the watershed algorithm, and labeled by the scikit-image label function. […] A grey-level co-occurrence matrix (GLCM) was then generated from the projected signal, and the 'correlation' texture property from the GLCM was calculated per nucleus. One-way ANOVA followed by Sidak's multiple comparisons test was performed on the correlation values across conditions using GraphPad Prism version 8.2.0 for Mac (www.graphpad.com). Finally, to derive the condensation score, these values were subtracted from 1.

[3] = system: MED1 genomic occupancy in HCT116 cells; assay: MED1 ChIP-seq in HCT116 cells; format: cell-based, human; settings: 50 μM cisplatin for 6 hours
[4] = system: super-enhancers in Hela cells; settings: cisplatin treated Hela cells, published data (41); cited from earlier work

## N.N.[Cl][Pt][Cl] [cisplatin]
MED1
  partitioning / incorporation into MED1 droplets: selectively concentrated in MED1 droplets
HP1α
  partitioning / incorporation into HP1α droplets: freely diffuses
MED1 aromatic mutant
  partitioning into MED1 aromatic mutant droplets: no longer partitioned; also recorded: substantially reduced
MED1 condensates
  mobility in MED1 droplets (FRAP): highly mobile
[1]
  DNA platination in MED1 versus HP1α condensates: more efficiently platinated in MED1 condensates than in HP1α condensates
[2]
  effect on nuclear condensates in live cells: selective and progressive reduction in MED1 condensates; also recorded: Dissolution of MED1 condensates
[2]; listed as Cisplatin
  effect on nuclear condensates in live cells: specifically disrupts MED1 and BRD4 condensates
[3]
  MED1 ChIP-seq signal after cisplatin: preferential loss of MED1 ChIP-seq signal at super-enhancers; also recorded: reduced
[4]
  location of cisplatin-modified DNA (platinated-DNA pull-down sequencing): preferentially occurs at super-enhancers
